Molecular target: T1, JAK2 JH1 JH2 V617F (Homo sapiens, UniProt O60674, V617F)
T1 construct: JAK2 JH1 JH2 V617F; purchased Thermo Fisher Scientific (Life Technologies) SelectScreen
Assay: SelectScreen Z'LYTE
Assay type: biochemical
Procedure, shortened: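 NU5455 was profiled across the SelectScreen Broad panel of kinase activity and binding assays. Z'LYTE reactions such as CSF1R ran at apparent Km ATP, while the Adapta CAMK1 assay used ATP listed as 10. Values are given as percent.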

T1 sequence (O60674 532-1132 V617F limits assumed): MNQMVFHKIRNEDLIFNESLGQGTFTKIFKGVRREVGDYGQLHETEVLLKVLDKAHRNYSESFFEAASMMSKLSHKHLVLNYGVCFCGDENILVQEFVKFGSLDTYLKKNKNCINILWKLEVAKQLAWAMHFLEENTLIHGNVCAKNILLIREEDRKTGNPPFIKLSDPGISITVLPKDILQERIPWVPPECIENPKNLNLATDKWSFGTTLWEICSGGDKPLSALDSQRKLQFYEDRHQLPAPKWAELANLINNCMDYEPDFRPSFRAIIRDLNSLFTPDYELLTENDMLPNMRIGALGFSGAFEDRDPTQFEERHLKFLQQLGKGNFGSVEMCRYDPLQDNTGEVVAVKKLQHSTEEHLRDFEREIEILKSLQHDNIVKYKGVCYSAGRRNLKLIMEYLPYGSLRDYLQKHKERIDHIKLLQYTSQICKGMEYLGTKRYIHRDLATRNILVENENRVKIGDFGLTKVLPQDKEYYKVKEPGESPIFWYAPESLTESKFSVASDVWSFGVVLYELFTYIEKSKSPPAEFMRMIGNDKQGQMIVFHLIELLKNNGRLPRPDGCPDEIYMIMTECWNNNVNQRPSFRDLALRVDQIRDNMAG

CN(C(=O)CN1CCOCC1)c1ccc2sc3c(-c4cccc5c(=O)cc(N6CC7CCC(C6)O7)oc45)cccc3c2c1 [NU5455]
inhibition at 1 µM: -13.8%
